Results published in patent US6713251B2, “Method for detection of drug-induced mutations in the reverse transcriptase gene” (Innogenetics N.V., priority 1996, dated 2004).

Key:
HIV-1 = test: Follow-up of plasma HIV RNA copy number (viral load, HIV Monitor test) in treated patients; format: in vivo, human
Method: (§1) Plasma samples were taken from HIV type-1 infected patients and stored at −20° C. until use. Patients were treated with AZT, ddI, ddC, D4T, 3TC, or several combinations of these prodrugs. The European serum samples tested were randomly selected. For the US serum collection, only the first sample from a follow-up series was taken. Some of these US patients were treated, others were not treated.
For cDNA synthesis and PCR amplification, the RNA pellet was dissolved in 15 μl random primers (20 ng/μl, pdN6, Pharmacia), prepared in DEPC-treated or HPLC grade water. After denaturation at 70° C. for 10 minutes, 5 μl cDNA mix was added, composed of 4 μl 5×AMV-RT buffer (250 mM Tris.HCl pH 8.5, 100 mM KCl, 30 mM MgCl2, 25 mM DTT), 0.4 μL 25 mM dXTPs, 0.2 μl or 25U Ribonuclease Inhibitor (HPRI, Amersham), and 0.3 μl or 8U AMV-RT (Stratagene). CDNA synthesis occurred during the 90 minutes incubation at 42° C. The HIV RT gene was then amplified using the following reaction mixture. […] Nested round PCR products were analysed on agarose gel and only clearly visible amplification products were used in the LiPA procedure. Quantification of viral RNA was obtained with the HIV Monitor™test (Roche, Brussels, Belgium).
We selected follow-up samples from three patients and analyzed the viral genotype on the 48 LiPA probes. […]

CD4 cells = test: Follow-up of CD4 cell count in treated HIV-1 infected patients; format: in vivo, human
Method: as §1
We selected follow-up samples from three patients and analyzed the viral genotype on the 48 LiPA probes. FIG. 3 illustrates the applicability of genotypic resistance measurement in conjunction with the analysis of viral load and CD4 cell count.

Row | SMILES | Viral load decrease (HIV-1; Patient 94013, 3TC monotherapy from week 2 onwards) [log units] | CD4 count increase (CD4 cells; Patient 94013, 3TC monotherapy from week 2 onwards, highest level at week 10) [fold] | Effect on viral load (HIV-1; Patient 92021, ten weeks of AZT treatment (from week 10), values of week 16 and 19) | Change in CD4 count (CD4 cells; Patient 92021, AZT monotherapy from week 10, peak at week 21)
1 | Nc1ccn([C@@H]2CS[C@H](CO)O2)c(=O)n1 [3TC, (−)-β-L-2′,3′-dideoxy-3′-thioCytidine] | 3 | ~2.5 |  | 
2 | Cc1cn([C@H]2C[C@H](N=[N+]=[N-])[C@@H](CO)O2)c(=O)[nH]c1=O [AZT, 3′-azido-2′,3′-dideoxyThymidine] |  |  | did not result in a drop in viral load | initially increased
